For this data set, the system named is pancreatin (Panzytrat 40,000). Briefly: Cleavage experiments with pancreatin in water, followed by acid number. As to conditions: individual esters in pure form, 50° C. How it is done: The pancreatin is used in the form of the commercially available product Panzytrat® 40,000 from the Allergan company. The whole mixture is stirred on a hot plate at 50° C.; the course of the reaction is determined and monitored by continuously recording the acid number over time.
As for “3-hydroxybutyric acid di-diglycerol ester”, the “cleavage by pancreatin to free 3-hydroxybutyric acid (3-BHB-FS)” value is “cleaved by pancreatin to the free 3-hydroxybutyric acid”.

Take “3-hydroxybutyric acid mono-diglycerol ester”: the “cleavage by pancreatin to free 3-hydroxybutyric acid (3-BHB-FS)” value is given as “cleaved by pancreatin to the free 3-hydroxybutyric acid”. The entry for “3-hydroxybutyric acid tri-diglycerol ester” is “cleaved by pancreatin to the free 3-hydroxybutyric acid”.
